Assay results published in patent publication US20240366584A1, “COMBINATION TREATMENT OF CANCER WITH A PARP INHIBITOR AND A LIPOPHILIC STATIN” (TESARO, INC., priority 2021, published 2024).
Read-outs that look alike come from different tables or passages of the source.

Columns and labels:
[1] = cited from earlier work
[2] = system: participants with advanced ovarian cancer; assay: post-hoc analysis of the PRIMA clinical trial (progression free survival); assay type: in vivo, human; conditions: post hoc subgroups, Kaplan-Meier
Text: This example describes a post-hoc analysis of the PRIMA clinical trial.
This was an exploratory post hoc analysis.
For the subgroup analyses, we performed a two-sided log-rank test using randomization stratification factors (best response to last platinum; HRD status; and time from penultimate platinum to progression) to analyze PFS (progression free survival), which was summarized with the use of Kaplan-Meier methods. We estimated hazard ratios with two-sided 95% Confidence Intervals (CIs) using a stratified Cox proportional hazards (PH) model, with the stratification factors used in randomization.
The Cox model for interaction testing also included stratification factors used in randomization as covariates.

[3] = pH 7.0, Shitara et al., Pharmacology & Therapeutics, 2006
[4] = pH 7.4, Matre et al., Vascular Health and Risk Management, 2016

Row | SMILES | log D [1, 3] | log D [1, 4] | mPFS [2] [months] | log D ([1]; pH 7.4, Shitara et al., Pharmacology & Therapeutics, 2006)
1 | CC(C)n1c(/C=C/C(O)CC(O)CC(=O)O)c(-c2ccc(F)cc2)c2ccccc21 (stereo not drawn) [fluvastatin] | 1.75 | 1.75 |  | 
2 | CC[C@H](C)C(=O)O[C@H]1C[C@@H](C)C=C2C=C[C@H](C)[C@H](CC[C@@H]3C[C@@H](O)CC(=O)O3)[C@H]21 [lovastatin] | 3.91 | 2.59 |  | 
3 | NC(=O)c1cccc2cn(-c3ccc([C@@H]4CCCNC4)cc3)nc12 [niraparib] |  |  | 13.7 | 
4 | O=C(O)C[C@H](O)C[C@H](O)/C=C/c1c(C2CC2)nc2ccccc2c1-c1ccc(F)cc1 [pitavastatin] | 1.50 | 1.50 |  | 
5 | CC[C@H](C)C(=O)O[C@H]1C[C@H](O)C=C2C=C[C@H](C)[C@H](CC[C@@H](O)C[C@@H](O)CC(=O)O)[C@H]21 [pravastatin] | −0.47 |  |  | 
6 | CC(C)c1nc(N(C)S(C)(=O)=O)nc(-c2ccc(F)cc2)c1/C=C/[C@@H](O)C[C@@H](O)CC(=O)O [rosuvastatin] |  |  |  | −0.25 to −0.50
